Where a name gives a salt, the structure may show the parent alone. Where only a bound is given, the exact number is not on record here.

This assay concerns the target T1, AR (Homo sapiens, UniProt P10275).
T1 construct: endogenous in cells; host or cells: VCaP cells
T1 sequence (P10275 1-920): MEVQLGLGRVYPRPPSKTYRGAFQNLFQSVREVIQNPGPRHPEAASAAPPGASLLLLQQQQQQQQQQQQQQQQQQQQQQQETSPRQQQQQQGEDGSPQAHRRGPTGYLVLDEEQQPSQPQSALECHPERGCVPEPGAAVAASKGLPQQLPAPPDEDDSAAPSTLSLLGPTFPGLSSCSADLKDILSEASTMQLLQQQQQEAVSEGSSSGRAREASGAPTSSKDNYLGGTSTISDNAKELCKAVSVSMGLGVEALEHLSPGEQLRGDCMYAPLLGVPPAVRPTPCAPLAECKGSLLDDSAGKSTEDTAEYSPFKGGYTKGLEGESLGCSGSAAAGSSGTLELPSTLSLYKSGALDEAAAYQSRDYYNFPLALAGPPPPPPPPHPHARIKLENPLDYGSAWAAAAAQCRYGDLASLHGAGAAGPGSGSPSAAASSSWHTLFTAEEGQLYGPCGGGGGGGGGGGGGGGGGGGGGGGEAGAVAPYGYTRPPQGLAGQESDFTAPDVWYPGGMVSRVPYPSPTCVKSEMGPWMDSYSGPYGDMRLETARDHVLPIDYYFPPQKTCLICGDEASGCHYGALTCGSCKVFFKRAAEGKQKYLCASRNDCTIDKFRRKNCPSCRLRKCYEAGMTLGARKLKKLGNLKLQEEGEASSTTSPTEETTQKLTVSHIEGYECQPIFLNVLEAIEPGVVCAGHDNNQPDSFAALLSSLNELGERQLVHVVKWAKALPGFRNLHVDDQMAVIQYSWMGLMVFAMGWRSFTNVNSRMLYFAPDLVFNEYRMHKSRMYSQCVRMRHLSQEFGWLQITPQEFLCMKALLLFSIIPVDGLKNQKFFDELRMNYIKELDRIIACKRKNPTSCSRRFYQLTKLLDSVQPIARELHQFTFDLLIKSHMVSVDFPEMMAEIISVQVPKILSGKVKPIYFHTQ
As to the kind of experiment: VCAP AR Degradation Assay. As to conditions: VCaP cells, 24 h, AR ELISA; for DC50: concentration of compound when AR level = 50% of DMSO control (50% AR degradation); for Y: lowest measured AR level normalized to DMSO control (AR degradation efficiency). Type of assay: cell-based. On the procedure:
VCAP AR Degradation Assay. Test compounds were pre-dispensed into a Corning CellBind 96-well clear bottom plate (Cat #3300) using an acoustic dispenser to make a 10-point concentration series at 1:3 dilution for each compound. The final top concentration of each compound was 5 μM. DMSO at a final concentration of 0.1% was used as a control. VCaP cells cultured in DMEM with 8% fetal bovine serum (FBS) were seeded at 50K cells per well in a 200 μL volume into the compound plate and incubated at 37° C. in a CO2 incubator for 24 h. The medium was carefully removed from the cells and the plate was placed on ice. […] ice-cold 1× cell lysis buffer from Cell Signaling Technologies (Cat #9803) was added to each well of the cells and the plate was incubated at 4° C. on a shaker for 1 h. Fifteen μL of cell lysate was used for AR ELISA detection using a PathScan Total Sandwich AR ELISA kit (Cell Signaling Technology, Cat #12580). AR levels in compound-treated wells were normalized to that of DMSO control and expressed as percent of control (PoC) (y). A Four Parameter Logistic Model (Sigmoidal Dose-Response Model) was used to determine the compound's DC50, and EC50, using the following equation: y=(A+((B−A)/(1+((C/x)^D)))) • A=YMin (lowest AR level normalized to DMSO control in response to compound treatment, as determined by curve fit) • B=YMax (maximum AR level as determined by curve fit) • C=EC50 • D=Hill Slope • x=compound concentration • EC50=the concentration of compound when y=[…] • DC50=the concentration of the compound when y=50% of DMSO control (50% AR degradation) • y=AR protein level normalized to DMSO control
The lowest measured AR level normalized to DMSO control in response to compound treatment, termed Y value, was used to characterize the compound-mediated AR degradation efficiency.
On the technique in general: In an ELISA, binding on a coated surface is turned into a signal by an enzyme label.

For orientation: DC50 means the concentration giving 50% degradation. High values mean a less potent degrader, low ones a more potent degrader. For the compound `C[C@@H]1CN(CCO[C@H]2CC[C@H](N3C(=S)N(c4ccc(C#N)c(C(F)(F)F)c4)C(=O)C3(C)C)CC2)C[C@H](C)N1CCCOc1cccc2c(N3CCC(=O)NC3=O)nn(C)c12` [Cmpd 16, 4-(3-(trans-4-(2-((3S,5R)-4-(3-((3-(2,4-dioxotetrahydropyrimidin-1(2H)-yl)-1-methyl-1H-indazol-7-yl)oxy)propyl)-3,5-dimethylpiperazin-1-yl)ethoxy)cyclohexyl)-4,4-dimethyl-5-oxo-2-thioxoimidazolidin-1-yl)-2-(trifluoromethyl)benzonitrile hydrochloride], the DC50 lay within 100 to 10000 nM and the Y result was “*** (30%<Y<60%)”.
On the same counts, the results for `Cn1nc(N2CCC(=O)NC2=O)c2cccc(NC(=O)CN3CCC(CCO[C@H]4CC[C@H](N5C(=S)N(c6cnc(C#N)c(C(F)(F)F)c6)C(=O)C5(C)C)CC4)C(F)(F)C3)c21` (stereo partly drawn) [Cmpd 36, 2-(4-(2-(((trans)-4-(3-(6-Cyano-5-(trifluoromethyl)pyridin-3-yl)-5,5-dimethyl-4-oxo-2-thioxoimidazolidin-1-yl)cyclohexyl)oxy)ethyl)-3,3-difluoropiperidin-1-yl)-N-(3-(2,4-dioxotetrahydropyrimidin-1(2H)-yl)-1-methyl-1H-indazol-7-yl)acetamide] are at most 2 nM and “* (0<Y≤20%)”.
In the case of `C[C@@H]1CN(CCCO[C@H]2CC[C@H](N3C(=S)N(c4ccc(C#N)c(C(F)(F)F)c4)C(=O)C3(C)C)CC2)C[C@H](C)N1CC(=O)Nc1cccc2c(N3CCC(=O)NC3=O)nn(C)c12` [Cmpd 8, 2-((2R,6S)-4-(3-((trans-4-(3-(4-Cyano-3-(trifluoromethyl)phenyl)-5,5-dimethyl-4-oxo-2-thioxoimidazolidin-1-yl)cyclohexyl)oxy)propyl)-2,6-dimethylpiperazin-1-yl)-N-(3-(2,4-dioxotetrahydropyrimidin-1(2H)-yl)-1-methyl-1H-indazol-7-yl)acetamide hydrochloride], the DC50 is at most 2 nM and the Y entry is listed as “* (0<Y≤20%)”.
For `C[C@@H]1CN(CCO[C@H]2CC[C@H](N3C(=S)N(c4ccc(C#N)c(C(F)(F)F)c4)C(=O)C3(C)C)CC2)C[C@H](C)N1CC(=O)Nc1cccc2c(N3CCC(=O)NC3=O)nn(C)c12` [Cmpd 1, 2-((2S,6R)-4-(2-((trans-4-(3-(4-Cyano-3-(trifluoromethyl)phenyl)-5,5-dimethyl-4-oxo-2-thioxoimidazolidin-1-yl)cyclohexyl)oxy)ethyl)-2,6-dimethylpiperazin-1-yl)-N-(3-(2,4-dioxotetrahydropyrimidin-1(2H)-yl)-1-methyl-1H-indazol-7-yl)acetamide hydrochloride], the half-maximal degradation concentration (DC50) lay within 10 to 100 nM and the Y result is “*** (30%<Y<60%)”.
In the same order, the values of `C[C@@H]1CN(CCCO[C@H]2CC[C@H](N3C(=S)N(c4ccc(C#N)c(Cl)c4)C(=O)C3(C)C)CC2)C[C@H](C)N1CC(=O)Nc1cccc2c(N3CCC(=O)NC3=O)nn(C)c12` [Cmpd 9, 2-((2R,6S)-4-(3-((trans-4-(3-(3-Chloro-4-cyanophenyl)-5,5-dimethyl-4-oxo-2-thioxoimidazolidin-1-yl)cyclohexyl)oxy)propyl)-2,6-dimethylpiperazin-1-yl)-N-(3-(2,4-dioxotetrahydropyrimidin-1(2H)-yl)-1-methyl-1H-indazol-7-yl)acetamide hydrochloride] are at most 2 nM and “* (0<Y≤20%)”.
In the same order, the values of `Cn1nc(N2CCC(=O)NC2=O)c2cccc(NC(=O)CN3CCN(CCCO[C@H]4CC[C@H](N5C(=S)N(c6ccc(C#N)c(C(F)(F)F)c6)C(=O)C5(C)C)CC4)C[C@@H]3C(F)(F)F)c21` [Cmpd 26, 2-((R)-4-(3-(((trans)-4-(3-(4-Cyano-3-(trifluoromethyl)phenyl)-5,5-dimethyl-4-oxo-2-thioxoimidazolidin-1-yl)cyclohexyl)oxy)propyl)-2-(trifluoromethyl)piperazin-1-yl)-N-(3-(2,4-dioxotetrahydropyrimidin-1(2H)-yl)-1-methyl-1H-indazol-7-yl)acetamide] are 2 to 10 nM and “* (0<Y≤20%)”.
For the compound `C[C@@H]1C[C@H](OCCC[C@H]2CC[C@H](N3C(=S)N(c4cnc(C#N)c(C(F)(F)F)c4)C(=O)C3(C)C)CC2)C[C@H](C)N1CC(=O)Nc1cccc2c(N3CCC(=O)NC3=O)nn(C)c12` [Cmpd 30, 2-((2R,4r,6S)-4-(3-((trans)-4-(3-(6-Cyano-5-(trifluoromethyl)pyridin-3-yl)-5,5-dimethyl-4-oxo-2-thioxoimidazolidin-1-yl)cyclohexyl)propoxy)-2,6-dimethylpiperidin-1-yl)-N-(3-(2,4-dioxotetrahydropyrimidin-1(2H)-yl)-1-methyl-1H-indazol-7-yl)acetamide], the DC50 was in the range of 2 to 10 nM and the Y result is listed as “* (0<Y≤20%)”.
On the same counts, the results for `C[C@@H]1CN(CCC[C@H]2CC[C@H](N3C(=S)N(c4ccc(C#N)c(Cl)c4)C(=O)C3(C)C)CC2)C[C@H](C)N1CC(=O)Nc1cccc2c(N3CCC(=O)NC3=O)nn(C)c12` [Cmpd 11, 2-((2S,6R)-4-(3-(trans-4-(3-(3-Chloro-4-cyanophenyl)-5,5-dimethyl-4-oxo-2-thioxoimidazolidin-1-yl)cyclohexyl)propyl)-2,6-dimethylpiperazin-1-yl)-N-(3-(2,4-dioxotetrahydropyrimidin-1(2H)-yl)-1-methyl-1H-indazol-7-yl)acetamide hydrochloride] are 10 to 100 nM and “*** (30%<Y<60%)”.
With `C[C@@H]1C[C@@H](CCO[C@H]2CC[C@H](N3C(=S)N(c4ccc(C#N)c(C(F)(F)F)c4)C(=O)C3(C)C)CC2)C[C@H](C)N1CC(=O)Nc1cccc2c(N3CCC(=O)NC3=O)nn(C)c12` [Cmpd 13, 2-((2R,4s,6S)-4-(2-((trans-4-(3-(4-Cyano-3-(trifluoromethyl)phenyl)-5,5-dimethyl-4-oxo-2-thioxoimidazolidin-1-yl)cyclohexyl)oxy)ethyl)-2,6-dimethylpiperidin-1-yl)-N-(3-(2,4-dioxotetrahydropyrimidin-1(2H)-yl)-1-methyl-1H-indazol-7-yl)acetamide hydrochloride], the DC50 fell in the range of 2 to 10 nM and the Y entry is reported as “* (0<Y≤20%)”.
In the same order, the values of `Cn1nc(N2CCC(=O)NC2=O)c2cccc(NC(=O)CN3CCN(CCO[C@H]4CC[C@H](N5C(=S)N(c6ccc(C#N)c(C(F)(F)F)c6)C(=O)C5(C)C)CC4)C[C@@H]3C(F)(F)F)c21` [Cmpd 20, 2-((R)-4-(2-((trans-4-(3-(4-Cyano-3-(trifluoromethyl)phenyl)-5,5-dimethyl-4-oxo-2-thioxoimidazolidin-1-yl)cyclohexyl)oxy)ethyl)-2-(trifluoromethyl)piperazin-1-yl)-N-(3-(2,4-dioxotetrahydropyrimidin-1(2H)-yl)-1-methyl-1H-indazol-7-yl)acetamide hydrochloride] are at most 2 nM and “** (20%<Y≤%)”.
With `C[C@@H]1CN(CCO[C@H]2CC[C@H](N3C(=S)N(c4cnc(C#N)c(C(F)(F)F)c4)C(=O)C3(C)C)CC2)C[C@H](C)N1CC(=O)Nc1cccc2c(N3CCC(=O)NC3=O)nn(C)c12` [Cmpd 4, 2-((2R,6S)-4-(2-((trans-4-(3-(6-Cyano-5-(trifluoromethyl)pyridin-3-yl)-5,5-dimethyl-4-oxo-2-thioxoimidazolidin-1-yl)cyclohexyl)oxy)ethyl)-2,6-dimethylpiperazin-1-yl)-N-(3-(2,4-dioxotetrahydropyrimidin-1(2H)-yl)-1-methyl-1H-indazol-7-yl)acetamide hydrochloride], the DC50 lay in the range of 2 to 10 nM and the Y result was “** (20%<Y≤%)”.
